Values joined by “and” are separate entries in the source; they are usually repeats but may differ in a detail not shown here. Equal values may be shown once.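 All cell lines were grown in 96-well plates and treated with compound for 48 hours. GI50 is the concentration that inhibits growth by half. The concentration for full growth arrest is given as TGI.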
Experiments:
Assay in all cases: NCI tumour cell line growth inhibition, 48 h
HOP-92 NSCLC = test system: HOP-92 NSCLC
HT29 colon = test system: HT29 colon
MDA-MB-435 = test system: MDA-MB-435
UACC-257 melanoma = test system: UACC-257 melanoma
IGROV1 ovarian = test system: IGROV1 ovarian
NCI-H522 lung = test system: NCI-H522 lung
CAKI-1 renal = test system: CAKI-1 renal
CCRF-CEM leukemia = test system: CCRF-CEM leukemia
SF-268 CNS = test system: SF-268 CNS
EKVX NSCLC = test system: EKVX NSCLC

Compound	GI50 (HOP-92 NSCLC)	TGI (HOP-92 NSCLC)	GI50 (HT29 colon)	TGI (HT29 colon)	GI50 (MDA-MB-435)	TGI (MDA-MB-435)	GI50 (UACC-257 melanoma)	TGI (UACC-257 melanoma)	GI50 (IGROV1 ovarian)	TGI (IGROV1 ovarian)	GI50 (NCI-H522 lung)	TGI (NCI-H522 lung)	GI50 (CAKI-1 renal)	TGI (CAKI-1 renal)	GI50 (CCRF-CEM leukemia)	TGI (CCRF-CEM leukemia)	GI50 (SF-268 CNS)	TGI (SF-268 CNS)	GI50 (EKVX NSCLC)	TGI (EKVX NSCLC)
Fc1ccc(-c2ncn(C3CCNCC3)c2-c2ccnc(Oc3ccccc3)n2)cc1	5.75 µM	> 25 µM	8.3 µM	> 25 µM	17.8 µM	> 25 µM	12.5 µM	> 25 µM	13.5 µM	> 25 µM	> 25 µM	> 25 µM	18.4 µM	> 25 µM	> 23.3 µM	> 25 µM	> 25 µM	> 25 µM	> 25 µM	> 25 µM
C=CCCC(O)c1ccc(C(O)CCCCCCCCCCCC)o1 (stereo not drawn)	25.5 µM	51.2 µM	32.3 µM	> 100 µM	17.8 µM	34.7 µM	19.2 µM	40.1 µM	18.7 µM	43.2 µM	17.3 µM	44.4 µM	18.1 µM	34.8 µM	18.4 µM	> 100 µM	> 100 µM	> 100 µM	23.9 µM	50.4 µM
CC(C)c1ccc2c(N=Nc3ccc(S(N)(=O)=O)cc3)c(O)[nH]c2c1	> 15.9 µM	> 25 µM	> 25 µM	> 25 µM	> 23.2 µM	> 25 µM	> 21.5 µM	> 25 µM	> 15.5 µM	> 25 µM	7.08 µM	> 17.8 µM	24.9 µM	> 25 µM	> 25 µM	> 25 µM	7.52 µM	> 20.2 µM	> 16.6 µM	> 25 µM
CC1(C)CC[C@]2(C(=O)n3ccnc3)CC[C@]3(C)[C@H](C(=O)C=C4[C@@]5(C)C=C(C#N)C(=O)C(C)(C)[C@@H]5CC[C@]43C)[C@@H]2C1	0.0221 µM	0.102 µM	< 0.0117 µM	–	< 0.0148 µM	0.0373 µM	0.0719 µM	–	< 0.0106 µM	< 0.0292 µM	0.0168 µM	0.0585 µM	< 0.01 µM	0.0393 µM	< 0.01 µM	0.0438 µM	0.0164 µM	> 100 µM	0.141 µM	0.545 µM
CCOCCc1c(O)nc(SC)[nH]c1=O	> 100 µM	> 100 µM	> 100 µM	> 100 µM	> 100 µM	> 100 µM	> 100 µM	> 100 µM	> 100 µM	> 100 µM	> 100 µM	> 100 µM	> 100 µM	> 100 µM	> 100 µM	> 100 µM	> 100 µM	> 100 µM	> 100 µM	> 100 µM
O=C(CSc1nc2ccc([N+](=O)[O-])cc2[nH]1)Nc1cccc(Cl)c1	0.421 µM	3.3 µM	2.75 µM	10.7 µM	2.7 µM	12.2 µM	1.57 µM	6.68 µM	3.1 µM	18.3 µM	1.87 µM	8.9 µM	2.3 µM	10.4 µM	3.1 µM	> 100 µM	3.04 µM	21.8 µM	2.27 µM	12.6 µM
O=C(/C=C/c1ccccn1)c1ccccc1O	2.1 µM	4.91 µM	2.23 µM	4.84 µM	1.69 µM	3.41 µM	2.22 µM	5.71 µM	1.76 µM	3.36 µM	1.56 µM	3.08 µM	1.58 µM	3.21 µM	1.71 µM	5.43 µM	2.53 µM	7.02 µM	5.22 µM	21.8 µM
C/C(=N\Nc1ccc2ccccc2n1)c1ccccc1O	–	> 100 µM	–	> 100 µM	–	> 100 µM	–	> 100 µM	–	> 100 µM	–	> 100 µM	–	> 100 µM	–	> 29.4 µM	–	> 100 µM	–	> 100 µM
CN(CCCCCl)P(=O)(OCc1ccc([N+](=O)[O-])o1)C(F)(F)c1ccc(CC(=O)N[C@@H](CC(=O)O)C(=O)N[C@@H](Cc2ccc(C(F)(F)P(=O)(OCc3ccc([N+](=O)[O-])o3)N(C)CCCCCl)cc2)C(N)=O)cc1 (stereo partly drawn)	22.5 µM	52.3 µM	60.4 µM	> 100 µM	49.1 µM	> 100 µM	> 100 µM	> 100 µM	45.7 µM	> 100 µM	35.7 µM	> 100 µM	> 100 µM	> 100 µM	30.2 µM	> 100 µM	42.9 µM	> 100 µM	67.7 µM	> 100 µM
COc1ccc(-c2cn(-c3ccc(Cl)cc3)c(=S)[nH]2)cc1OC	0.333 µM	7.63 µM	3.89 µM	> 100 µM	> 100 µM	> 100 µM	> 100 µM	> 100 µM	7.08 µM	> 100 µM	21.5 µM	> 100 µM	3.24 µM	> 100 µM	> 100 µM	> 100 µM	24.6 µM	> 100 µM	13.2 µM	> 100 µM
C[As](C)Sc1ccnc(S[As](C)C)n1	0.774 µM	5 µM	3.98 µM	> 39.3 µM	1.8 µM	> 27.9 µM	5 µM	27.1 µM	4.73 µM	> 40.8 µM	0.918 µM	27.8 µM	4.35 µM	22.9 µM	1.34 µM	–	7.44 µM	> 39.7 µM	11.2 µM	35.8 µM
COC(=O)NNc1c([N+](=O)[O-])cnn(-c2ccccc2)c1=O	–	3.9 µM	–	3.81 µM	–	3.03 µM	–	6.33 µM	–	36.2 µM	–	2.6 µM	–	8.24 µM	–	1.55 µM	–	7.71 µM	–	9.75 µM
O=S(=O)(O)c1ccc(Cl)cc1.[Cd]	> 100 µM	> 100 µM	> 100 µM	> 100 µM	20.5 µM	63 µM	29.6 µM	78.8 µM	20.9 µM	43.2 µM	1.99 µM	6.79 µM	36 µM	> 100 µM	24.9 µM	85.4 µM	24.7 µM	72 µM	80.6 µM	> 100 µM
O=C1CSC(=S)N1c1ccc(F)cc1F	–	> 100 µM	–	> 100 µM	–	> 100 µM	–	> 100 µM	–	> 100 µM	–	47.3 µM	–	> 100 µM	–	76.4 µM	–	> 100 µM	–	> 100 µM
CS(=O)(=O)N1CCN(Cc2cc3nc(-c4cccc5[nH]ncc45)nc(N4CCOCC4)c3s2)CC1	0.0232 µM and 0.0547 µM	0.197 µM and 0.508 µM	0.284 µM and 0.101 µM	> 100 µM	0.728 µM and 0.276 µM	> 100 µM	0.184 µM and 0.162 µM	2.77 µM and > 2.32 µM	0.0571 µM and 0.0389 µM	0.425 µM and 0.301 µM	0.602 µM and 0.37 µM	> 28 µM	0.419 µM and 0.209 µM	3.92 µM and > 3.95 µM	2.3 µM and 0.909 µM	> 100 µM	1.59 µM and 0.625 µM	> 100 µM	0.445 µM and 0.577 µM	> 100 µM
COC1OCC(OS(=O)(=O)c2ccc(C)cc2)C(OC(=O)c2ccccc2)C1OC(=O)c1ccccc1 (stereo not drawn)	2.48 µM	> 100 µM	3.96 µM	> 100 µM	0.662 µM	3.94 µM	–	–	6.4 µM	> 100 µM	1.56 µM	7.09 µM	4.21 µM	> 100 µM	4.74 µM	> 100 µM	9.75 µM	> 100 µM	45.3 µM	> 100 µM
O=C(O)c1cc(N/C=C2\C(=O)c3ccccc3OC2O)ccc1O (stereo not drawn)	6.73 µg/mL	125 µg/mL	28.8 µg/mL	71.6 µg/mL	23.3 µg/mL	79.2 µg/mL	33.4 µg/mL	93.7 µg/mL	20.6 µg/mL	61.8 µg/mL	34.3 µg/mL	72.7 µg/mL	13 µg/mL	42 µg/mL	9.75 µg/mL	44.2 µg/mL	24 µg/mL	108 µg/mL	24.3 µg/mL	78.5 µg/mL
Cn1cc(C2=C(c3c4n(c5ccccc35)CC(CN)C4)C(=O)NC2=O)c2ccccc21 (stereo not drawn)	4.32 µM	11.6 µM	3.04 µM	11.8 µM	1.11 µM	4.72 µM	3.92 µM	7.8 µM	3.52 µM	9.08 µM	3 µM	6.63 µM	3.37 µM	9.51 µM	4.82 µM	25 µM	3.94 µM	9.57 µM	–	–
C=C1C(=O)O[C@H]2[C@H]1CC/C(COC(=O)/C=C\C(=O)NCc1ccc(Cn3c(=O)sn(-c4ccc(OC)cc4)c3=O)cc1)=C\CC[C@@]1(C)O[C@@H]21	0.587 µM	1.36 µM	0.395 µM	1.64 µM	0.642 µM	1.32 µM	0.85 µM	1.86 µM	0.505 µM	1.21 µM	0.648 µM	1.56 µM	0.291 µM	0.997 µM	0.174 µM	4.27 µM	0.693 µM	1.37 µM	0.773 µM	1.51 µM
CSC(=S)N/N=C/c1ccccc1	–	> 100 µM	–	> 100 µM	–	> 100 µM	–	> 100 µM	–	> 100 µM	–	> 100 µM	–	89.4 µM	–	> 100 µM	–	> 100 µM	–	> 100 µM
CCOc1cc(C=O)c2c(ccc3ccc(OC)c(OC)c32)c1OC	–	> 100 µM	–	> 100 µM	–	> 100 µM	–	> 100 µM	–	> 100 µM	–	> 100 µM	–	> 100 µM	–	> 100 µM	–	> 100 µM	–	> 100 µM
O=C(Nc1ncc(Cc2ccccc2)s1)c1ccc2c(c1)OCCO2	1.35 µM	> 100 µM	0.0506 µM	> 22 µM	0.0187 µM	0.0436 µM	3.87 µM	> 100 µM	0.0761 µM	> 100 µM	0.0251 µM	–	0.0406 µM	> 39 µM	0.0484 µM	> 100 µM	0.459 µM	> 100 µM	0.133 µM	> 100 µM
CN(C)CCCNC(=O)c1cc(NC(=O)CCNC(=O)c2ccc3c(c2)C(=O)c2ccccc2C3=O)cn1C	58.9 µM	> 100 µM	79.8 µM	> 100 µM	> 100 µM	> 100 µM	21.8 µM	95.5 µM	> 100 µM	> 100 µM	> 100 µM	> 100 µM	> 100 µM	> 100 µM	64.1 µM	> 100 µM	71 µM	> 100 µM	> 100 µM	> 100 µM
Fc1ccc(CNc2c3ccccc3nc3ccccc23)cc1	2.25 µM	11.5 µM	2.27 µM	9.54 µM	1.89 µM	4.07 µM	2.59 µM	7.02 µM	2.3 µM	6.02 µM	1.66 µM	4.24 µM	1.46 µM	3.8 µM	3.12 µM	> 100 µM	2.74 µM	9.49 µM	2.61 µM	11.4 µM
NC(=O)c1nnn(Cc2cc(Cl)c(C(=O)c3ccc(Cl)cc3)c(Cl)c2)c1N	> 9.09 µM	> 9.09 µM and 48.8 µM	> 9.09 µM	> 9.09 µM and 42 µM	–	> 40.7 µM	6.96 µM	> 9.09 µM and 33.7 µM	> 9.09 µM	> 9.09 µM and 44.2 µM	> 9.09 µM	> 9.09 µM and 38.8 µM	–	25.5 µM	7.76 µM	> 100 µM	> 9.09 µM	> 9.09 µM and 29 µM	> 9.09 µM	> 9.09 µM and 37.5 µM
O=C1Nc2ccccc2C1(c1ccc(O)c(F)c1)c1ccc(O)c(F)c1	2.36 µM	16.6 µM	22.7 µM	48.5 µM	3.06 µM	11.2 µM	24.6 µM	67.5 µM	3.19 µM	50.6 µM	11.5 µM	31.3 µM	17.6 µM	55.4 µM	17.8 µM	73.3 µM	16.1 µM	62.1 µM	4.31 µM	43.5 µM
Nc1ncnc2c1c(-c1cccc(OCc3ccccc3)c1)cn2C1CC(CN2CCCC2)C1 (stereo not drawn)	0.0749 µM	0.867 µM	0.117 µM	1.63 µM	1.29 µM	3.08 µM	0.867 µM	2.18 µM	2.92 µM	7.5 µM	1.95 µM	3.73 µM	2.08 µM	9.27 µM	2.51 µM	6.66 µM	1.94 µM	4.61 µM	–	–

— PubChem BioAssay (NCI)
